Assay results from patent publication US20220380329A1, “A HYPERBRANCHED POLYGLYCEROL POLYGLYCIDYL ETHER AND ITS USE AS CROSSLINKER FOR POLYSACCHARIDES” (BIOPOLIMERI S.R.L., priority 2019, published 2022).

Test system: 3T3 mouse fibroblasts
Assay: MTT viability assay, cells grown in direct contact with the crosslinker
Type: cell-based
Conditions: direct contact with cross-linker solutions of same epoxy equivalents, without polysaccharide; control culture medium in NaCl 0.9%
Description: MTT assay was used to evaluate the viability of 3T3 mouse fibroblasts grown.
c) MTT assay on cells grown in direct contact with the crosslinker
The MTT assay was performed on cells grown in direct contact with a solution containing cross-linker solutions. The solution contains the same epoxy equivalents, following the same steps of the manufacturing process of hydrogels—such as chemical reaction, washing and sterilization, but without the addition of the polysaccharide.

`C(CCOCC1CO1)COCC1CO1` (stereo not shown) [BDDE, 1,4-butane diol diglycidyl ether] was tested, and the “cell viability (MTT)” value was “significant decrease of cells viability and signs of suffering”.
